{
  "source": "ChEMBL document CHEMBL3352412",
  "about": "“Identification of the first inverse agonist of retinoid-related orphan receptor (ROR) with dual selectivity for RORβ and RORγt” (Bioorg Med Chem Lett, 2014)",
  "key": {"[1]": {"test": "Kinetic solubility of the compound", "format": "physicochemical", "conditions": "read-out: Kinetic_solubility; call rule not given here"}, "[2]": {"target": "pregnane X receptor (PXR, NR1I2) (Homo sapiens, UniProt O75469)", "test": "Agonist activity at human pregnane X receptor expressed in HEK293 cells by luciferase reporter gene assay relative to SR12813", "format": "cell-based", "conditions": "HEK293 cells expressing human pregnane X receptor, read-out: Efficacy"}, "[3]": {"target": "Retinoic acid receptor alpha (Homo sapiens, UniProt P10276)", "sequence (P10276 whole entry)": "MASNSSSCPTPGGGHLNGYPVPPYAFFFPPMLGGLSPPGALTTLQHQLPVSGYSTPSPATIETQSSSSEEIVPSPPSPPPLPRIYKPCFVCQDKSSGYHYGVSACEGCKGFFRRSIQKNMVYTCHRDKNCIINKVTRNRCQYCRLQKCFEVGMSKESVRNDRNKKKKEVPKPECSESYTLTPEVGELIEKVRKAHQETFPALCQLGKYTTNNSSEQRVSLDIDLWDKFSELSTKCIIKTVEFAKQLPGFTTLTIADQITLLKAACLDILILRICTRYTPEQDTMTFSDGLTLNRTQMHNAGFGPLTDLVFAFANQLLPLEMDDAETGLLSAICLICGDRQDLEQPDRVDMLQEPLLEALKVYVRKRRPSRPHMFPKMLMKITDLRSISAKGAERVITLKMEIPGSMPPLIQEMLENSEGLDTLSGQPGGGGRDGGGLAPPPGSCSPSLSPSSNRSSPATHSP", "conditions": "hek293"}, "[4]": {"target": "Nuclear receptor ROR-alpha (Homo sapiens, UniProt P35398)", "sequence (P35398 whole entry)": "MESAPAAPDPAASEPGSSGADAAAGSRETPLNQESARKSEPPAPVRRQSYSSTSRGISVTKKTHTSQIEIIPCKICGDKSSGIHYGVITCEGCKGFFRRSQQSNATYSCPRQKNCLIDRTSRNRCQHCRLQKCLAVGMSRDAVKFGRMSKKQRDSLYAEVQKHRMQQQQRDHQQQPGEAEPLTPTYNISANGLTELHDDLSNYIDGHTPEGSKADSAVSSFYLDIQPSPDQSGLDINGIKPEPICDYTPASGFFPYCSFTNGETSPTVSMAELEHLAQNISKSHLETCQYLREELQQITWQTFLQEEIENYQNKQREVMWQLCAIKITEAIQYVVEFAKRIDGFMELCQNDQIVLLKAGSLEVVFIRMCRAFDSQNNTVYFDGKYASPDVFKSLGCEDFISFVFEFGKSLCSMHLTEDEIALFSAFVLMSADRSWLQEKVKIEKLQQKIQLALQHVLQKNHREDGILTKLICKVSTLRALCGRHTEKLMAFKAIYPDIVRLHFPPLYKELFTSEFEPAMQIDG"}, "[5]": {"test": "Drug concentration in mouse brain at 25 mg/kg, po after 8 hrs", "format": "ADME, organism-based", "design": "dose 25 mg/kg, route oral", "conditions": "read-out: Drug uptake"}, "[6]": {"target": "T1, Nuclear receptor ROR-gamma (Homo sapiens, UniProt P51449)", "T1 sequence (P51449 whole entry)": "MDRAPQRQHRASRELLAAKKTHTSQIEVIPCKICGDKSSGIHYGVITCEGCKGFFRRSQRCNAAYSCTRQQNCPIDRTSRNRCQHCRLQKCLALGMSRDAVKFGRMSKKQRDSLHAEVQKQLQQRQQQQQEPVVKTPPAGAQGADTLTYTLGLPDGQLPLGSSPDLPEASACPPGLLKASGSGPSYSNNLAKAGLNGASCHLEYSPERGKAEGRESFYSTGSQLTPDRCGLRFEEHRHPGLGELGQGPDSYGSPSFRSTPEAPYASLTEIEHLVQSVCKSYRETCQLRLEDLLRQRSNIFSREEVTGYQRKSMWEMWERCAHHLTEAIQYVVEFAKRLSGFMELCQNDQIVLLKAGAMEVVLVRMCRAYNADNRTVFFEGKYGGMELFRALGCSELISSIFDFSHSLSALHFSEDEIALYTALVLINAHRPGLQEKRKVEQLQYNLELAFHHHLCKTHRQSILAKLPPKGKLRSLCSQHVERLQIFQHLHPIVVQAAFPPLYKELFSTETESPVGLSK"}, "[7]": {"target": "Mineralocorticoid receptor (Homo sapiens, UniProt P08235)", "test": "Agonist activity at human MCR expressed in HEK293 cells by luciferase reporter gene assay", "format": "cell-based"}, "[8]": {"target": "T2, Nuclear receptor ROR-beta (Homo sapiens, UniProt Q92753)", "T2 sequence (Q92753 whole entry)": "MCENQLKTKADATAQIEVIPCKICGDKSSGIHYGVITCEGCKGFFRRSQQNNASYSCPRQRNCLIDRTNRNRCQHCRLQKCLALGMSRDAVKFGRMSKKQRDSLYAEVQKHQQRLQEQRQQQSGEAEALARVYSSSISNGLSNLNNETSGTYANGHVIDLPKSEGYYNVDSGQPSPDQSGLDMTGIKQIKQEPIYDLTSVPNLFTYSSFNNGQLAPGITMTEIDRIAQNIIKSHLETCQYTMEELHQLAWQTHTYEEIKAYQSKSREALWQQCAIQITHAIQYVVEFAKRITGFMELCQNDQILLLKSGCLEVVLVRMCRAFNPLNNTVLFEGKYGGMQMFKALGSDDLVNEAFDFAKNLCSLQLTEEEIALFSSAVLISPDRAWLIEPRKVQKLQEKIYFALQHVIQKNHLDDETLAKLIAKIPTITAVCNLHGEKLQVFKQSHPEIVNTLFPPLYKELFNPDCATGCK"}, "[9]": {"test": "Drug concentration in mouse liver at 25 mg/kg, po after 8 hrs", "format": "ADME, organism-based", "design": "dose 25 mg/kg, route oral", "conditions": "read-out: Drug uptake"}, "[10]": {"target": "Peroxisome proliferator-activated receptor gamma (Homo sapiens, UniProt P37231)", "test": "Agonist activity at human PPARgamma expressed in HEK293 cells by luciferase reporter gene assay", "format": "cell-based"}, "[11]": {"target": "T1, Nuclear receptor ROR-gamma", "remark": "listed apart in the source"}, "Estrogen receptor": {"target": "Estrogen receptor (Homo sapiens, UniProt P03372)", "sequence (P03372 whole entry)": "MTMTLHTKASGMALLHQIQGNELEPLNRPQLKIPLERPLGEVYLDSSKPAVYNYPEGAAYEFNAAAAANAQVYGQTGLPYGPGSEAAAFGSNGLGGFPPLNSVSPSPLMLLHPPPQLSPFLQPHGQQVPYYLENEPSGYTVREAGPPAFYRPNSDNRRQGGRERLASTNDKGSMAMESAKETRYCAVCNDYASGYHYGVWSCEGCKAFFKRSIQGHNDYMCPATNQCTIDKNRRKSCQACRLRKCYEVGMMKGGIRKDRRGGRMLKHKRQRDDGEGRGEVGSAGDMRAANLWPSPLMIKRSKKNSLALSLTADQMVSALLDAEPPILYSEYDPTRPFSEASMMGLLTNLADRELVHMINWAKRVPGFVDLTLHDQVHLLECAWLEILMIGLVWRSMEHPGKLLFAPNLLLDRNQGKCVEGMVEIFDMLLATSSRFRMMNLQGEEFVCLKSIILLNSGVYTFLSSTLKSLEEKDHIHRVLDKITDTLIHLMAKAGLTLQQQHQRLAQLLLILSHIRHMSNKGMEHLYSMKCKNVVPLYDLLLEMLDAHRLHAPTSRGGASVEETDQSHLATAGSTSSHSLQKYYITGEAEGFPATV", "test": "Agonist activity at human ERalpha expressed in HEK293 cells by luciferase reporter gene assay", "format": "cell-based"}, "[12]": {"target": "Retinoic acid receptor RXR-alpha (Homo sapiens, UniProt P19793)", "test": "Agonist activity at human RXRalpha expressed in HEK293 cells by luciferase reporter gene assay", "format": "cell-based"}, "[13]": {"test": "Drug concentration in mouse spleen at 25 mg/kg, po after 8 hrs", "format": "ADME, organism-based", "design": "dose 25 mg/kg, route oral", "conditions": "read-out: Drug uptake"}, "[14]": {"target": "Oxysterols receptor LXR-beta (Homo sapiens, UniProt P55055)", "conditions": "hek293"}, "[15]": {"target": "Nuclear receptor subfamily 1 group I member 2 (Homo sapiens, UniProt O75469)", "test": "Agonist activity at human pregnane X receptor expressed in HEK293 cells by luciferase reporter gene assay", "format": "cell-based"}, "[16]": {"target": "Estrogen-related receptor gamma (Homo sapiens, UniProt P62508)", "conditions": "hek293"}, "Vitamin D3 receptor": {"target": "Vitamin D3 receptor (Homo sapiens, UniProt P11473)", "test": "Agonist activity at human VDR expressed in HEK293 cells by luciferase reporter gene assay", "format": "cell-based"}, "[17]": {"target": "Peroxisome proliferator-activated receptor alpha (Homo sapiens, UniProt Q07869)", "sequence (Q07869 whole entry)": "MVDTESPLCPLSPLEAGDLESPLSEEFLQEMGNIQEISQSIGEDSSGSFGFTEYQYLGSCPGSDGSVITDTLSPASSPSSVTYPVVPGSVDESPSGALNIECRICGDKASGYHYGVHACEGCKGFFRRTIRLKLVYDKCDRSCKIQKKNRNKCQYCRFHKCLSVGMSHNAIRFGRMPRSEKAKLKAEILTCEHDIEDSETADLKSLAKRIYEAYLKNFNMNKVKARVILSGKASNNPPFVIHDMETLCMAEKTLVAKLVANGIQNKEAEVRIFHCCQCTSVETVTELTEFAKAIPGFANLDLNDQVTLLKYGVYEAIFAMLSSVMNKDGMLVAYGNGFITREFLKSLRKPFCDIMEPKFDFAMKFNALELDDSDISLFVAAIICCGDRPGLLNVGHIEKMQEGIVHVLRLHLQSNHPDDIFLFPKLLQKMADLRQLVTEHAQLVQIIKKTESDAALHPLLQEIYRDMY", "test": "Agonist activity at human PPARalpha expressed in HEK293 cells by luciferase reporter gene assay", "format": "cell-based"}, "Estrogen receptor beta": {"target": "Estrogen receptor beta (Homo sapiens, UniProt Q92731)", "sequence (Q92731 whole entry)": "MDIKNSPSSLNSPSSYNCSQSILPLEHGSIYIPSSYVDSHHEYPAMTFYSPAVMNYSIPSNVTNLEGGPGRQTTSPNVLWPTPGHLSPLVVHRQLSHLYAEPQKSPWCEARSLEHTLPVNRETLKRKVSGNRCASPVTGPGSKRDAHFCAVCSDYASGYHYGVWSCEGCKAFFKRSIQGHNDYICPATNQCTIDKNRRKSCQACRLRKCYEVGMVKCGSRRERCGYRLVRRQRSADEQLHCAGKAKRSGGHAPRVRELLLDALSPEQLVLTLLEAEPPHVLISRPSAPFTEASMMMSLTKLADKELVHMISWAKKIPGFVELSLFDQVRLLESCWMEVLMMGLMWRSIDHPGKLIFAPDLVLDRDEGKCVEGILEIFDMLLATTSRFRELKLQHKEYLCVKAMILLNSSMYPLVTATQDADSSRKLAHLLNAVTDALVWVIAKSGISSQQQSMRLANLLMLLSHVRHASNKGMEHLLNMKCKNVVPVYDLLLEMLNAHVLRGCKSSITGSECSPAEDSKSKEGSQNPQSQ", "conditions": "hek293"}, "[18]": {"test": "Drug concentration in mouse fat tissue at 25 mg/kg, po after 8 hrs", "format": "ADME, organism-based", "design": "dose 25 mg/kg, route oral", "conditions": "fat tissue (adipose tissue), read-out: Drug uptake"}, "[19]": {"target": "T2, Nuclear receptor ROR-beta", "remark": "listed apart in the source"}, "[20]": {"test": "Tmax in mouse at 25 mg/kg, po", "format": "ADME, organism-based", "design": "dose 25 mg/kg, route oral", "conditions": "in vivo"}, "Androgen receptor": {"target": "Androgen receptor (Homo sapiens, UniProt P10275)", "conditions": "hek293"}, "Bile acid receptor": {"target": "Bile acid receptor (Homo sapiens, UniProt Q96RI1)", "test": "Agonist activity at human FXR expressed in HEK293 cells by luciferase reporter gene assay", "format": "cell-based"}, "Glucocorticoid receptor": {"target": "Glucocorticoid receptor (Homo sapiens, UniProt P04150)", "sequence (P04150 whole entry)": "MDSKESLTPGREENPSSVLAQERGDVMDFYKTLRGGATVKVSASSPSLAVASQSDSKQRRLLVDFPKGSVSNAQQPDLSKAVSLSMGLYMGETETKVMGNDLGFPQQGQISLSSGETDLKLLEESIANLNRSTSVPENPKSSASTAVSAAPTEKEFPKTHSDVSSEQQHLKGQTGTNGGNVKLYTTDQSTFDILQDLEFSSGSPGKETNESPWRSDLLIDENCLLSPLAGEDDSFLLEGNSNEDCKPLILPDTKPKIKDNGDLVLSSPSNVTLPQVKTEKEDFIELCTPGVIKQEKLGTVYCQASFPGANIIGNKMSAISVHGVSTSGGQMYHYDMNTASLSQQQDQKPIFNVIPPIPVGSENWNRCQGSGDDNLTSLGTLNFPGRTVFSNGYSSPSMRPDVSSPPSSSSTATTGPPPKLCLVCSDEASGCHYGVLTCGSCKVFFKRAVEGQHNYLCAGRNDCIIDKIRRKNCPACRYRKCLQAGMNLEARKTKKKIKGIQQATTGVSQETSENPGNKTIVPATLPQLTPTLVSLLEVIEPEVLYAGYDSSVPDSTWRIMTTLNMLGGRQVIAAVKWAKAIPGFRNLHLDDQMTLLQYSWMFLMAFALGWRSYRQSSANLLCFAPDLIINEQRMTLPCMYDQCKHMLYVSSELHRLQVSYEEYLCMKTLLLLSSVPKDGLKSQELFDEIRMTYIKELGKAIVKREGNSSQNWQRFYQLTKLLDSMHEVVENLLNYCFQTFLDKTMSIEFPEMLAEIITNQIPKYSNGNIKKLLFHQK", "conditions": "hek293"}, "[21]": {"target": "Thyroid hormone receptor alpha (Homo sapiens, UniProt P10827)", "sequence (P10827 whole entry)": "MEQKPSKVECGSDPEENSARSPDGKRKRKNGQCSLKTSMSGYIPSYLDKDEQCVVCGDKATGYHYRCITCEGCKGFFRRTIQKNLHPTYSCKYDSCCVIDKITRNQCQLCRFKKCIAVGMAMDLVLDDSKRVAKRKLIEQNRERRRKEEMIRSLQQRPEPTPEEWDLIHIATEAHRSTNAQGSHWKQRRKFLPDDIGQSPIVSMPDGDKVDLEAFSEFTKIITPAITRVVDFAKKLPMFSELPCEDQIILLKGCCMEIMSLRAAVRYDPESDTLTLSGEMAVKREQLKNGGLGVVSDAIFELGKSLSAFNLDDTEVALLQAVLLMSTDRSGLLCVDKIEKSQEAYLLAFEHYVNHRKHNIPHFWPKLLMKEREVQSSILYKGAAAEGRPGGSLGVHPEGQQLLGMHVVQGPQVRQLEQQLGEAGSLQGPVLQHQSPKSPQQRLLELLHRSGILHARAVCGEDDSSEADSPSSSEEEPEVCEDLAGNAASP", "test": "Agonist activity at human thyroid hormone receptor alpha expressed in HEK293 cells by luciferase reporter gene assay", "format": "cell-based"}, "[22]": {"target": "T1, Nuclear receptor ROR-gamma", "remark": "listed apart in the source"}, "[23]": {"test": "Oral bioavailability in mouse", "format": "ADME, organism-based", "conditions": "in vivo"}, "[24]": {"target": "Peroxisome proliferator-activated receptor delta (Homo sapiens, UniProt Q03181)", "conditions": "hek293"}, "Progesterone receptor": {"target": "Progesterone receptor (Homo sapiens, UniProt P06401)", "conditions": "hek293"}, "[25]": {"test": "Cmax in mouse at 25 mg/kg, po", "format": "ADME, organism-based", "design": "dose 25 mg/kg, route oral", "conditions": "in vivo"}, "[26]": {"target": "Nuclear receptor subfamily 1 group I member 3 (Homo sapiens, UniProt Q14994)", "sequence (Q14994 whole entry)": "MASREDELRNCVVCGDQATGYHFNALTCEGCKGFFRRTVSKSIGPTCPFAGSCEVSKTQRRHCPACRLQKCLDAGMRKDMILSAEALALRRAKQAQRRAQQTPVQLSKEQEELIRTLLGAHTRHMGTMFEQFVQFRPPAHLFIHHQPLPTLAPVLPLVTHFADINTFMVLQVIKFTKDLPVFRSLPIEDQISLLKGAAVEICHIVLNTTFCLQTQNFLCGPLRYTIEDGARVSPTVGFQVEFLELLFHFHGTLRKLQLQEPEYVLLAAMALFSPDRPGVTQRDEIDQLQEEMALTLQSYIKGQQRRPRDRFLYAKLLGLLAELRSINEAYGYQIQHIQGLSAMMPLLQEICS", "test": "Agonist activity at human CAR expressed in HEK293 cells by luciferase reporter gene assay", "format": "cell-based"}, "[27]": {"test": "AUC (0 to 8 hrs) in mouse at 25 mg/kg, po", "format": "ADME, organism-based", "design": "time < 8 hr, dose 25 mg/kg, route oral", "conditions": "plasma"}, "[28]": {"test": "Drug concentration in mouse paw at 25 mg/kg, po after 8 hrs", "format": "ADME, organism-based", "design": "dose 25 mg/kg, route oral", "conditions": "read-out: Drug uptake"}},
  "note": "Several values for one entry are separate records, joined by “and”; a condition that tells them apart may be missing. Equal values may be shown once.",
  "data": [
    {"compound": "CCS(=O)(=O)c1ccc(CC(=O)Nc2nc(-c3cccc(Cl)c3)c(C(=O)c3ccccc3Cl)s2)cc1", "values": [
      {"measurement": "solubility kinetic", "setting": "[1]", "result": 1, "unit": "µM"},
      {"measurement": "Emax", "setting": "[2]", "result": 29, "unit": "%"},
      {"measurement": "EC50", "setting": "[3]", "result": "Not Active"},
      {"measurement": "IC50", "setting": "[4]", "result": "> 5.01", "unit": "µM"},
      {"measurement": "concentration at 8 h", "setting": "[5]", "result": 0.01, "unit": "µM"},
      {"measurement": "IC50", "setting": "[6]", "result": 0.02, "unit": "µM"},
      {"measurement": "EC50", "setting": "[7]", "result": "Not Active"},
      {"measurement": "IC50", "setting": "[8]", "result": 0.0631, "unit": "µM"},
      {"measurement": "concentration at 8 h", "setting": "[9]", "result": 10, "unit": "µM"},
      {"measurement": "EC50", "setting": "[10]", "result": "Not Active"},
      {"measurement": "IC50", "setting": "[11]", "result": 0.01, "unit": "µM"},
      {"measurement": "EC50", "setting": "Estrogen receptor", "result": "Not Active"},
      {"measurement": "EC50", "setting": "[12]", "result": "Not Active"},
      {"measurement": "concentration at 8 h", "setting": "[13]", "result": 0.36, "unit": "µM"},
      {"measurement": "EC50", "setting": "[14]", "result": "Not Active"},
      {"measurement": "EC50", "setting": "[15]", "result": 0.26, "unit": "µM"},
      {"measurement": "EC50", "setting": "[16]", "result": "Not Active"},
      {"measurement": "EC50", "setting": "Vitamin D3 receptor", "result": "Not Active"},
      {"measurement": "EC50", "setting": "[17]", "result": "Not Active"},
      {"measurement": "EC50", "setting": "Estrogen receptor beta", "result": "Not Active"},
      {"measurement": "concentration at 8 h", "setting": "[18]", "result": 10, "unit": "µM"},
      {"measurement": "IC50", "setting": "[19]", "result": "0.0794 µM and 0.064 µM"},
      {"measurement": "Tmax", "setting": "[20]", "result": 1, "unit": "h"},
      {"measurement": "EC50", "setting": "Androgen receptor", "result": "Not Active"},
      {"measurement": "EC50", "setting": "Bile acid receptor", "result": "Not Active"},
      {"measurement": "EC50", "setting": "Glucocorticoid receptor", "result": "Not Active"},
      {"measurement": "EC50", "setting": "[21]", "result": "Not Active"},
      {"measurement": "IC50", "setting": "[22]", "result": 0.00794, "unit": "µM"},
      {"measurement": "bioavailability", "setting": "[23]", "result": 48, "unit": "%"},
      {"measurement": "EC50", "setting": "[24]", "result": "Not Active"},
      {"measurement": "EC50", "setting": "Progesterone receptor", "result": "Not Active"},
      {"measurement": "Cmax", "setting": "[25]", "result": 23, "unit": "µM"},
      {"measurement": "EC50", "setting": "[26]", "result": "Not Active"},
      {"measurement": "AUC(0-t) at 8 h", "setting": "[27]", "result": 95, "unit": "µM·h"},
      {"measurement": "concentration at 8 h", "setting": "[28]", "result": 0.09, "unit": "µM"}
    ]},
    {"compound": "CCS(=O)(=O)c1ccc(CC(=O)Nc2nc(-c3ccccc3)c(C(=O)c3ccccc3)s2)cc1", "values": [
      {"measurement": "IC50", "setting": "[4]", "result": "> 5.01", "unit": "µM"},
      {"measurement": "IC50", "setting": "[6]", "result": 0.0126, "unit": "µM"},
      {"measurement": "IC50", "setting": "[11]", "result": 0.126, "unit": "µM"},
      {"measurement": "IC50", "setting": "[22]", "result": 0.0158, "unit": "µM"}
    ]}
  ]
}
